Measurements published in patent US20230210984A1, “ADOPTIVE IMMUNOTHERAPY” (The Council of the Queensland Institute of Medical Research, priority 2019, published 2023).
Where two headings read alike, the source gives them in different places.

Legend:
Type in all cases: cell-based
SNU719 and C666.1 cells = experiment: Flow cytometry of cancer cell intrinsic pathways and immune regulatory molecules; conditions: 16 hours, JQ1 2.5 μM; for MHC-Class I expression: inhibitor alone and in combination with HLA-matched T cells; for MHC-Class I expression / MYC expression / pERK1/2 expression / pSTAT3 expression: selumatinib 1 μM
Description: FIG. 13: Phenotyping the impact of dual combination of MEK1/2 inhibitor and HLA matched allogeneic EBV specific T coils on cancer cell intrinsic pathways. Representation of the cancer cell phenotype after 16 hours of individual and dual combination of selumatinib (1 μM) and HLA-matched EBV specific T cells (effector-to-target ratio of 25:1) among SNU719 (upper panel) and C666.1 (lower panel) on the expression of (A) pERK1/2; (B) MHC-Class I; (C) pSTAT3; and (D) MYC performed using flow cytometry. The data are represented as the mean±SD from three independent experiments. P-values were calculated using one-way ANOVA: ns=not significant, *p<0.05, **p<0.01, ***p<0.001 and ****p<0.0001.
FIG. 17: Phenotyping the impact of dual combination of JQ1 inhibitor and MLA matched allogeneic EBV-specific T cells on cancer cell intrinsic pathways. Representation of the cancer cell phenotype after 16 hours of individual and dual combination of JQ1 (2.5 μM) and HLA-matched EBV specific T cells (effector-to-target ratio of 25:1) among SNU719 (upper panel) and C666.1 (lower panel) on the expression of (A) MYC; (B) pERK1/2; (C) pAKT; and (D) pSTAT3 performed using flow cytometry. The data are represented as the mean±SD from three independent experiments. P-values were calculated using one-way ANOVA: ns=not significant, *p<0.05, **p<0.01, ***p<0.001 and ****p<0.0001.
FIG. 18: Phenotyping the impact of dual combination of JQ1 inhibitor and HLA matched allogeneic EBV specific T cells on immune regulatory molecules. Representation of the cancer cell phenotype after 16 hours of individual and dual combination of JQ1 (2.5 μM) and HLA-matched EBV specific T cells (effector-to-target ratio of 25:1) among SNU719 (upper panel) and C666.1 (lower panel) on the expression of (A) MHC Class-I; (B) PD-L1; and (C) CD47 performed using flow cytometry. The data are represented as the mean±SD from three independent experiments. P-values were calculated using one-way ANOVA: ns=not significant, *p<0.05, **p<0.01, ***p<0.001 and ****p<0.0001.
In next set of experiments, we wanted to investigate the effect of the dual combination the cancer cell intrinsic pathway and describe the rationale of the effective combination of MEK1/2 inhibition with T cell treatment. […] As a result, we observed upregulation of MHC-Class I expression in presence of selumatinib alone and in combination with respective HLA-matched T cells (FIG. 13B). […] Thus, inhibition of MEK1/2 pathway results in upregulation of MHC-class I expression via upregulation of STAT3 pathway and downregulation of MYC which enabling better therapeutic compatibility in presence of HLA-matched allogeneic T cells.
Next, we wanted to determine the specificity of the combination and as such we challenged SNU719 and C666.1 cells with HLA-mismatch allogeneic T cells alongside JQ1 inhibitor individually and in combination. […] In next set of experiments, we wanted to investigate rationale of the effective combination of JQ1 inhibition with T cell treatment. […] As a result, it caused downregulation of pERK1/2, pAKT and pSTAT3 expression (FIG. 17B-C).

SNU719 cells = experiment: MTS cell viability, inhibitor combined with EBV-specific T cells (Example 2); conditions: combination with EBV-specific T cells (25:1) vs individual treatment, 48 hrs; AZD6244 0.5 μM, trematinib 1.0 μM, JQ1 5.0 μM
Description: Cell viability assay was performed using the CellTiter 96® AQueous one cell viability assay reagent (Promega, WI, USA) for three biological replicates per EBV-associated cancer cell lines in triplicate. Briefly, the cancer cells (target cells) were plated at a density of 5000 cells per well in an overall media volume of 200 μL on a 96-well tissue-culture plate (BD Falcon™). The effector AdE1-LMPpoly transfected T cells were freshly thawed in RPMI-1640 with 10% FCS and 120 IU/mL of recombinant IL-2 at 37° C. and 50% CO2. Post 24 hrs of plating and incubation at 37° C. and 50% CO2, the effector T cells were mixed to the target cells at a gradient ratio of effector to target (E:T) of 5:1-100:1. The exact number of T cells (To) used per E:T ratio (ET) was independently used as control alongside PBS treated target cells (Es) and sole media (M0). After 24 hrs of incubation at 37° C. and 50% CO2, MTS was added to each well (1:100 dilution in media) and was incubated for 1 hour following which the plate was centrifuged at 1,200×g at room temperature for 5 min and absorbance of the mixture at an optical density of 490 nm was measured via a microplate reader. The relative cell viability was calculated using the following formula: […]

[1] = tested on: EBV-associated cell lines (nasopharyngeal and gastric cancer cell lines); experiment: MTS cell viability assay, IC50 of inhibitors; conditions: for IC50: read-out: IC50 (~50% reduction in cell viability); for IC25 value (sub IC50 value): concentration chosen for in vitro combination treatment
Description: FIG. 9: Determining the IC50 value of MEK1/2 inhibitors. Representation of the cell viability performed using MTS assay after the indicated cell lines were incubated with 0.1 μM-5 μM of selumatinib (left panel) and trametinib (right panel) for 48 hours. The data are represented as the mean±SD from three independent experiments.
FIG. 14: Determining the IC50 value of JQ1 inhibitors. Representation of the cell viability performed using MTS assay after the indicated cell lines were incubated with 0.5 μM-10 μM of JQ1 for 48 hours. The data are represented as the mean±SD from three independent experiments.
Cell viability assay was performed using the CellTiter 96® AQueous one cell viability assay reagent (Promega, WI, USA) for three biological replicates per EBV-associated cancer cell lines in triplicate. Briefly, the cancer cells (target cells) were plated at a density of 5000 cells per well in an overall media volume of 200 μL on a 96-well tissue-culture plate (BD Falcon™). The effector AdE1-LMPpoly transfected T cells were freshly thawed in RPMI-1640 with 10% FCS and 120 IU/mL of recombinant IL-2 at 37° C. and […]. Post 24 hrs of plating and incubation at 37° C. and […], the effector T cells were mixed to the target cells at a gradient ratio of effector to target (E:T) of 5:1-100:1. The exact number of T cells (To) used per E:T ratio (ET) was independently used as control alongside PBS treated target cells (Es) and sole media (M0). After 24 hrs of incubation at 37° C. and […], MTS was added to each well (1:100 dilution in media) and was incubated for 1 hour following which the plate was centrifuged at 1,200×g at room temperature for 5 min and absorbance of the mixture at an optical density of 490 nm was measured via a microplate reader. The relative cell viability was calculated using the following formula: […]
To determine the upregulation of MAPK pathway in EBV-associated solid cancers, we first identified the IC50 value of MEK1/2 inhibitors (AZD6244 or selumetanib and trematinib) across nasopharyngeal and gastric cancer cell lines (with drug concertation ranging from 0.1 μM-5 μM). […] In the next set of experiments, we wanted to determine the impact of MEK1/2 inhibition in combination with allogeneic EBV-specific T cells on EBV-associated solid cancers. As such, we treated the respective EBV-associated cell lines (both gastric and nasopharyngeal) individually or in combination with MEK1/2 inhibitors (both selumetanib and trematinib) and EBV-specific T cells.
Similarly, we targeted MYC-dependent cancer intrinsic pathway using JQ1 inhibitor by first determining the IC50 value of the inhibitor across nasopharyngeal and gastric cancer cell lines (with drug concertation ranging from 0.5 μM-10 μM). […] To characterized the impact of JQ1 inhibition in combination with allogeneic EBV-specific T cells on EBV-associated cancer cells, we used IC25 value JQ1 (2.5 μM) alongside an effector to target ratio of 25:1 of the respective HLA matched allogeneic EBV-specific T cells in vitro. […] We also performed phenotypic characterization, using flow cytometry, of SNU719 and C666.1 cells after 16 hours of individual and dual treatment in vitro.

SMILES | MHC-Class I expression (SNU719 and C666.1 cells) | MYC expression (SNU719 and C666.1 cells) | pERK1/2 expression (SNU719 and C666.1 cells) | pSTAT3 expression (SNU719 and C666.1 cells) | cell viability of SNU719 (SNU719 cells) | IC50 ([1]; 48 h) [nM] | IC25 value (sub IC50 value) [1] [nM] | CD47 expression (SNU719 and C666.1 cells) | PD-L1 expression (SNU719 and C666.1 cells) | pAKT expression (SNU719 and C666.1 cells) | IC50 ([1]; EBV-associated nasopharyngeal and gastric cancer cell lines, MTS assay, 48 hours, compared to NPC43 (EBV-)) [nM]
Cn1cnc2c(F)c(Nc3ccc(Br)cc3Cl)c(C(=O)NOCCO)cc21 [selumetanib] | upregulation | downregulation | significant reduction | upregulation | significantly reduced | ~2500 | 1000 | – | – | – | –
Cc1sc2c(c1C)C(c1ccc(Cl)cc1)=N[C@@H](CC(=O)OC(C)(C)C)c1nnc(C)n1-2 [JQ1] | enhancing | significant reduction | downregulation | downregulation | significantly reduced | – | 2500 | downregulation | downregulation | downregulation | ~2500
